Legend:
K562/A02 = experiment: Antiproliferative activity against human K562/A02 cells overexpressing P-gp by MTT assay; type: functional, cell-based
[1] = Resistance index, ratio of IC50 for human K562/A02 cells to IC50 for human K562 cells; type: functional; design: reference not given here
K562 = experiment: Antiproliferative activity against human K562 cells by MTT assay; type: functional, cell-based
Histone deacetylase 1 = Histone deacetylase 1 (Homo sapiens, UniProt Q13547); experiment: Inhibition of recombinant human HDAC1 using Boc-Lys(Ac)-AMC as substrate incubated for 60 mins by fluorimetric assay
Histone deacetylase 8 = molecular target: T1, Histone deacetylase 8 (Homo sapiens, UniProt Q9BY41); experiment: Inhibition of recombinant human HDAC8 using Boc-Lys(Ac)-AMC as substrate incubated for 60 mins by fluorimetric assay
T1 sequence (Q9BY41 whole entry): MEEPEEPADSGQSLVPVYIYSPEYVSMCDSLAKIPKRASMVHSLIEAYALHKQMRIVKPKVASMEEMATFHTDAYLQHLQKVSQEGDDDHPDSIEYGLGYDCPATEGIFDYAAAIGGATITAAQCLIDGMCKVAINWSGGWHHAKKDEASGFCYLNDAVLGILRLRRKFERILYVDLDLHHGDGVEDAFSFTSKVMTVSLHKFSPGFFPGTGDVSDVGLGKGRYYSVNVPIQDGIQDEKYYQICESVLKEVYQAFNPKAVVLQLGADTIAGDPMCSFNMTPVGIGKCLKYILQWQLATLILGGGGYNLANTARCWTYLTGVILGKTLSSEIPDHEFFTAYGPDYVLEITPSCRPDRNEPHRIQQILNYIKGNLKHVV

[2] = molecular target: T2, Protein deacetylase HDAC6 (Homo sapiens, UniProt Q9UBN7); experiment: Inhibition of recombinant human HDAC6 using Boc-Lys(Ac)-AMC as substrate incubated for 60 mins by fluorimetric assay
T2 sequence (Q9UBN7 whole entry): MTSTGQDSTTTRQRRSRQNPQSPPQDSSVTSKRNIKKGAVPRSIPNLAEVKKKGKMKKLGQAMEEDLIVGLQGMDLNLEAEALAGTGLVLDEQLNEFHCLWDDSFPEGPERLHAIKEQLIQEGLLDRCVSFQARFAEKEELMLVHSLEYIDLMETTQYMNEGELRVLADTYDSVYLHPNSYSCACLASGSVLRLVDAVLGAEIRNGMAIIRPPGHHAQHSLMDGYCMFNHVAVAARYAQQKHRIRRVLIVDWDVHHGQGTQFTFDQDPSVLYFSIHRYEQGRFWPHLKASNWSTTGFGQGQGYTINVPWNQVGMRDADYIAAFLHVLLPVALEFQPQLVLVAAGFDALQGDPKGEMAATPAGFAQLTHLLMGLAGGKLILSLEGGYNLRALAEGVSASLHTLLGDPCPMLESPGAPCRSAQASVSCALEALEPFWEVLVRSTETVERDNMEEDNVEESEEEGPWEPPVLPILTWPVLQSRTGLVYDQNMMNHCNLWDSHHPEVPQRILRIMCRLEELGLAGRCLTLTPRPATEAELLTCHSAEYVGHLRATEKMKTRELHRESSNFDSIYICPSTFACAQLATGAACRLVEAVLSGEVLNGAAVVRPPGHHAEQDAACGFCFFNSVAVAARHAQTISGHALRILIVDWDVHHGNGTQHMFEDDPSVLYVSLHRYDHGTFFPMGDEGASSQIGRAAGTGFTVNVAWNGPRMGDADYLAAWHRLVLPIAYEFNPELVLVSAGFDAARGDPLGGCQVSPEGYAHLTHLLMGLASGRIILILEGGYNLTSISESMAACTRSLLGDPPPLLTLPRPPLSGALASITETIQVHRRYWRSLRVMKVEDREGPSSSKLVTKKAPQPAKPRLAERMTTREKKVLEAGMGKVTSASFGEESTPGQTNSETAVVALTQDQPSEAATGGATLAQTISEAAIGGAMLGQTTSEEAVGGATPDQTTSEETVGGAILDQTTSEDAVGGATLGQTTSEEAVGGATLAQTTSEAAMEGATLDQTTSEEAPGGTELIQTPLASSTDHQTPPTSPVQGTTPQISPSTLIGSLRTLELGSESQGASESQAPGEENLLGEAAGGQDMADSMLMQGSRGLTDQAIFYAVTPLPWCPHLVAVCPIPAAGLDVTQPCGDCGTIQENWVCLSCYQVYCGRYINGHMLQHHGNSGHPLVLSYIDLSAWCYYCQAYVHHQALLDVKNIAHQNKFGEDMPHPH

Chain of Histone deacetylase 1 (Q13547 whole entry): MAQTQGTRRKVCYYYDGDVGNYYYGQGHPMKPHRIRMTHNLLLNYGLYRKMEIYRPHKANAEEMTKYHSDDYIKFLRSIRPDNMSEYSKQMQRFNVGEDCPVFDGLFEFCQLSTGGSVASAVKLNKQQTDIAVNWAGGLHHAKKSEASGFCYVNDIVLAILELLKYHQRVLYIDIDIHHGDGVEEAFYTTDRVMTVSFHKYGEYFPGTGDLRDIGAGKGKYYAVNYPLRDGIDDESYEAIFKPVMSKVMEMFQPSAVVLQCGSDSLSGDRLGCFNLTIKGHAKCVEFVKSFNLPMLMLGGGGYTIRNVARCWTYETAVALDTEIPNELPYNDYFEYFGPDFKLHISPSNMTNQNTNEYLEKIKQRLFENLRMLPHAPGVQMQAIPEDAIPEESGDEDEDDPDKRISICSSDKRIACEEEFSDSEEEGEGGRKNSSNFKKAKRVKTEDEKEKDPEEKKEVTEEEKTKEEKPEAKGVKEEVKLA

| Compound | IC50 (K562/A02) [µM] | IC50 (K562) [µM] | IC50 (Histone deacetylase 1) [µM] | IC50 (Histone deacetylase 8) [µM] | IC50 [2] [µM] | Ratio IC50 [1] |
| --- | --- | --- | --- | --- | --- | --- |
| O=C(CCCCCNC(=S)N/N=C(\c1ccccc1)c1ccc([N+](=O)[O-])cc1)NO | 4.53 | 2.89 |  |  |  | 1.57 |
| COc1ccccc1/C(C)=N/NC(=S)NCCCC(=O)NO | > 10 | > 10 |  |  |  |  |
| Cc1ccccc1/C(=N/NC(=S)NCCCCCC(=O)NO)c1ccccc1 | 4.22 | 3.51 |  |  |  | 1.2 |
| O=C(CCCCCNC(=S)N/N=C(\c1ccccc1)c1ccccc1F)NO | 6.01 | 4.63 |  |  |  | 1.3 |
| O=C(CCCCCCC(=O)Nc1ccccc1)NO [VORINOSTAT] | 3.13 |  |  |  |  |  |
| CN(C)C(=S)NN=C(c1ccccn1)c1ccccn1 | 3.02 | 3.43 | > 5 | > 5 | > 5 | 0.88 |
| C/C(=N\NC(=S)NCCCCCC(=O)NO)c1cccc(C)c1 | 3.57 | 3.84 |  |  |  | 0.93 |

The next compounds have a lower IC50 (K562/A02) than those just listed; values first:

| IC50 (K562/A02) [µM] | IC50 (K562) [µM] | IC50 (Histone deacetylase 1) [µM] | IC50 (Histone deacetylase 8) [µM] | IC50 [2] [µM] | Compound | Ratio IC50 [1] |
| --- | --- | --- | --- | --- | --- | --- |
| 1.02 | 1.89 | 0.0693 | > 5 | 0.0629 | C/C(=N\NC(=S)NCCCCCC(=O)NO)c1ccc(F)cc1 | 0.54 |
| 0.98 | 0.61 |  |  |  | Cc1ccc(NC(=O)c2ccc(CN3CCN(C)CC3)cc2)cc1Nc1nccc(-c2cccnc2)n1 [IMATINIB] | 1.61 |
| 0.89 | 1.4 |  |  |  | C/C(=N\NC(=S)NCCCCCC(=O)NO)c1cccc(C(F)(F)F)c1 | 0.64 |
| 0.52 | 1.26 | 0.0546 | > 5 | 0.0377 | C/C(=N\NC(=S)NCCCCCC(=O)NO)c1cccc(Br)c1 | 0.41 |

From ChEMBL document CHEMBL4699612, “Discovery of thiosemicarbazone-containing compounds with potent anti-proliferation activity against drug-resistant K562/A02 cells” (Bioorg Med Chem Lett, 2020)
